pIC50: −log10 of the molar value.
Legend:
Plasmodium falciparum = assay: Antiplasmodial activity against asexual blood stage Plasmodium falciparum K1 assessed as inhibition of parasitic growth; format: functional, organism-based
[1] = tested on: Mycobacterium tuberculosis; assay: Antitubercular activity against Mycobacterium tuberculosis H37Ra assessed as inhibition of bacterial growth; format: functional, organism-based
Acinetobacter baumannii = assay: Antibacterial activity against Acinetobacter baumannii assessed as inhibition of bacterial growth; format: functional, organism-based
[2] = Cytotoxicity against human MRC5 cells assessed as reduction in cell viability; format: toxicity, cell-based
[3] = Selectivity index ratio of CC50 for cytotoxicity against human MRC5 cells to IC50 for antiplasmodial activity against asexual blood stage Plasmodium falciparum K1 assessed as inhibition of parasitic growth; format: toxicity, cell-based; settings: read-out: Ratio CC50/IC50
[4] = Selectivity index ratio of CC50 for cytotoxicity against human MRC5 cells to IC50 for antibacterial activity against Acinetobacter baumannii assessed as inhibition of bacterial growth; format: toxicity, cell-based; settings: read-out: Ratio CC50/IC50

Row | SMILES | pIC50 (Plasmodium falciparum) | pIC50 [1] | pIC50 (Acinetobacter baumannii) | CC50 [2] [µM] | selectivity ratio [3] | selectivity ratio [4]
1 | CC(C)OC(=O)OCOP(=O)(CCCC(=O)N(C)O)OCOC(=O)OC(C)C | 6.96 | < 4.19 | < 3.83 | > 50.7 | > 461 | 
2 | CN(O)C(=O)CCCP(=O)(OCOC(=O)c1ccccc1)OCOC(=O)c1ccccc1 | 6.92 | < 4.19 | 5.09 | 28.1 | 234 | 3.4
3 | CN(O)C(=O)CCCP(=O)(OCOC(=O)c1ccc(Cl)cc1)OCOC(=O)c1ccc(Cl)cc1 | 6.85 | < 4.19 | 4.41 | 31.2 | 223 | 0.8
4 | CCON(C)C(=O)CCCP(=O)(OCOC(=O)c1coc(-c2ccccc2O)n1)OCOC(=O)c1coc(-c2ccccc2O)n1 | 6.27 | < 4.19 | 4.80 | 26 | 48 | 1.6
5 | CCON(C)C(=O)CCCP(=O)(OCOC(=O)c1cccc(O)c1O)OCOC(=O)c1cccc(O)c1O | 5.98 | < 4.19 | < 3.92 | > 64 | > 61 | 
6 | CN(O)C(=O)CCCP(=O)(OCOC(=O)C(C)(C)C)OCOC(=O)C(C)(C)C | 6.07 | < 4.25 | 4.92 | > 51 | > 59 | > 4.3
7 | CC(C)OC(=O)OCOP(=O)(OCOC(=O)OC(C)C)C(CCC(=O)N(C)O)c1ccc(Cl)c(Cl)c1 (stereo not drawn) | 6.64 | < 4.19 | < 3.95 | 7.58 | 33 | 
8 | COc1ccc(C(=O)OCOP(=O)(CCCC(=O)N(C)O)OCOC(=O)c2ccc(OC)cc2)cc1 | 6.74 | < 4.19 | 5.00 | 33.1 | 184 | 3.3
9 | CCON(C)C(=O)CCCP(=O)(OCOC(=O)OCc1coc(-c2ccccc2O)n1)OCOC(=O)OCc1coc(-c2ccccc2O)n1 | 6.38 | < 4.19 | 5.15 | 25.5 | 61 | 3.6
10 | CN(O)C(=O)CCC(c1ccc(Cl)c(Cl)c1)P(=O)(OCOC(=O)C(C)(C)C)OCOC(=O)C(C)(C)C (stereo not drawn) | 6.36 | < 4.19 | < 3.95 | 6.81 | 15 | 
11 | CCON(C)C(=O)CCCP(=O)(OCOC(=O)c1ccccc1O)OCOC(=O)c1ccccc1O | 6.55 | < 4.19 | < 3.89 | > 64 | > 229 | 
12 | CN(O)C(=O)CCCP(=O)(OCOC(=O)c1ccc2ccccc2c1)OCOC(=O)c1ccc2ccccc2c1 | 6.60 | < 4.19 | 4.29 | 27.2 | 109 | 0.53
13 | CCCCCCCCOC(=O)OCOP(=O)(CCCC(=O)N(C)O)OCOC(=O)OCCCCCCCC | 7.15 | < 4.19 | 6.15 | 37.7 | 539 | 54
14 | CN(O)C(=O)CCC(c1ccc(Cl)c(Cl)c1)P(=O)(OCOC(=O)/C=C/c1ccccc1)OCOC(=O)/C=C/c1ccccc1 (stereo not drawn) | 5.35 | < 4.19 | < 4.01 | 24.6 | 5.6 | 
15 | CCCCCCCC(=O)OCOP(=O)(CCCC(=O)N(C)O)OCOC(=O)CCCCCCC | 7.52 | < 4.19 | 6.41 | 40.3 | 1340 | 103
16 | CN(O)C(=O)CCCP(=O)(OCOC(=O)OCCCc1ccccc1)OCOC(=O)OCCCc1ccccc1 | 7.05 | < 4.19 | 5.59 | > 64 | > 711 | > 25
17 | O=CN(O)CCCP(=O)(O)O [FOSMIDOMYCIN SODIUM] |  | < 4.19 |  | > 64 |  | 
18 | CN(O)C(=O)CCCP(=O)(OCOC(=O)CCCCc1ccccc1)OCOC(=O)CCCCc1ccccc1 | 7.30 | < 4.19 | 5.62 | > 64 | > 1280 | > 27
19 | Cc1ccc(C(=O)OCOP(=O)(CCCC(=O)N(C)O)OCOC(=O)c2ccc(C)cc2)cc1 | 6.24 | < 4.19 | 4.96 | > 64 | > 112 | > 5.8
20 | CN(O)C(=O)CCCP(=O)(OCOC(=O)CCc1ccccc1)OCOC(=O)CCc1ccccc1 | 7.05 | < 4.19 | 4.68 | > 64 | > 711 | > 3
21 | CN(O)C(=O)CCCP(=O)(OCOC(=O)c1cccc(Cl)c1)OCOC(=O)c1cccc(Cl)c1 | 6.85 | < 4.19 | 4.27 | > 64 | > 457 | > 1.2
22 | CCCCCCCC(=O)OCOP(=O)(OCOC(=O)CCCCCCC)C(CCC(=O)N(C)O)c1ccc(Cl)c(Cl)c1 (stereo not drawn) | 6.36 | < 4.19 | 4.96 | 22.5 | 51 | 2
23 | CN(O)C(=O)CCCP(=O)(OCOC(=O)/C=C/c1ccccc1)OCOC(=O)/C=C/c1ccccc1 | 7.30 | < 4.19 | 5.25 | 30.3 | 606 | 5.4

Reference: ChEMBL document CHEMBL5385862, “Acyloxymethyl and alkoxycarbonyloxymethyl prodrugs of a fosmidomycin surrogate as antimalarial and antibacterial agents” (Eur J Med Chem, 2023)
